Results as given in patent US8575197B2, “Pyrolinone derivative and pharmaceutical composition comprising the same” (Shionogi & Co., Ltd., priority 2008, dated 2013).

molecular target: human P2X3 receptor (Homo sapiens (Human), UniProt P56373); experiment: P2X3 receptor inhibition, ATP-evoked Fluo-3 calcium fluorescence (FDSS 3000); format: cell-based; settings: C6BU-1 cell transfected with human P2X3 receptor gene; ATP-evoked Fluo-3 fluorescence
In short: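 C6BU-1 cells stably transfected with human P2X3, loaded with 4 μM Fluo-3-AM for 1 h at 37 °C in HEPES buffer pH 7.5 with probenecid. Compound added 5 min before 40 nM ATP solution; fluorescence followed 3 min. IC50 from ratio of peak post-ATP to baseline fluorescence.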

Sequence of human P2X3 receptor (P56373 whole entry): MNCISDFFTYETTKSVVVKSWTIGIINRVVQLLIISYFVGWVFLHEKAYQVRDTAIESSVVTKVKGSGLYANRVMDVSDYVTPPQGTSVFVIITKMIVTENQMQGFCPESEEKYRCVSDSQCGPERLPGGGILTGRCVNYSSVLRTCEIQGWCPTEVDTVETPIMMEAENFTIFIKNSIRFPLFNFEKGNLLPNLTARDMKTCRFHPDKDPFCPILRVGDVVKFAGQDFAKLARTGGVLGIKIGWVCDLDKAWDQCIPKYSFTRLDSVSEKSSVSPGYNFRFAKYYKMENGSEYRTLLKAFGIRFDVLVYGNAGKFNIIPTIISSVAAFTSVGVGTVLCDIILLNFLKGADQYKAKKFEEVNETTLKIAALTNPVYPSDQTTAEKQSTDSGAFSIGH

First: COCc1ccccc1C1C(C(=O)C(C)C)=C(O)C(=O)N1c1ccc(-c2csc(C)n2)cc1 (centres unmarked) [Compound I-425]
Second: COCc1ccccc1C1C(C(=O)CC(C)C)=C(O)C(=O)N1c1ccc(-c2csc(C)n2)cc1 (centres unmarked) [Compound I-428]
The IC50 of the first is 1.7-fold higher: 697 nM for the first, 399 nM for the second.

Compared with COCCOc1ccccc1C1C(C(=O)CC(C)C)=C(O)C(=O)N1c1ccc(-c2csc(C)n2)cc1 (centres unmarked) [Compound I-427], COCCCOc1ccccc1C1C(C(=O)CC(C)C)=C(O)C(=O)N1c1ccc(-c2noc(C)n2)cc1 (centres unmarked) [Compound I-492] is 3.2-fold lower in IC50: 331 nM for the first, 104 nM for the second. The second is the more potent here.

CC(C)C(=O)C1=C(O)C(=O)N(c2ccc(-c3ccsc3)cc2)C1c1ccccc1OCCCO (centres unmarked) [Compound I-429] and COCCCOc1ccccc1C1C(C(=O)C(C)C)=C(O)C(=O)N1c1ccc(-c2ccsc2)cc1 (centres unmarked) [Compound I-489] are within 1.5-fold of each other in IC50: 7 nM for the first, 6 nM for the second.

First: CC(C)CC(=O)C1=C(O)C(=O)N(c2ccc(-c3ccoc3)cc2)C1c1ccccc1C(=O)N(C)C (centres unmarked) [Compound I-430]
Second: CN(C)C(=O)c1ccccc1C1C(C(=O)CC(C)(C)C)=C(O)C(=O)N1c1ccc(-c2ccsc2)cc1 (centres unmarked) [Compound I-466]
The IC50 of the first is 1.7-fold lower: 153 nM for the first, 260 nM for the second.

First: COCCOc1ncccc1[C@H]1C(C(=O)C(C)C)=C(O)C(=O)N1c1ccc(-c2ccsc2)cc1 [Compound I-433]
Second: CCOc1ncccc1C1C(C(=O)C(C)C)=C(O)C(=O)N1c1ccc(-c2ccsc2)cc1 (centres unmarked) [Compound I-441]
The IC50 of the first is 33-fold higher: 425 nM for the first, 13 nM for the second.

Compared with COCCOc1ccccc1C1C(C(=O)CC(C)C)=C(O)C(=O)N1c1ccc(SC)cc1 (centres unmarked) [Compound I-435], COCCOc1ccccc1C1C(C(=O)C(C)C)=C(O)C(=O)N1c1ccc(SC)cc1 (centres unmarked) [Compound I-475] is 2.2-fold higher in IC50: 82 nM for the first, 181 nM for the second.

Going from CSc1ccc(N2C(=O)C(O)=C(C(=O)CC(C)C)C2c2ccccc2OC(C)C)cc1 (centres unmarked) [Compound I-436] to CSc1ccc(N2C(=O)C(O)=C(C(=O)C(C)C)C2c2ccccc2OC(C)C)cc1 (centres unmarked) [Compound I-474], the IC50 rises from 42 nM to 71 nM (1.7-fold).

Compared with COCc1ccccc1C1C(C(=O)CC(C)C)=C(O)C(=O)N1c1ccc(SC)cc1 (centres unmarked) [Compound I-437], COCc1ccccc1C1C(C(=O)C(C)C)=C(O)C(=O)N1c1ccc(SC)cc1 (centres unmarked) [Compound I-477] is 4.3-fold higher in IC50: 111 nM for the first, 477 nM for the second.

Cc1nc(-c2ccc(N3C(=O)C(O)=C(C(=O)CC4CCCC4)C3C3CCCCC3)cc2)no1 (centres unmarked) [Compound I-438] and Cc1nc(-c2ccc(N3C(=O)C(O)=C(S(=O)(=O)c4ccccc4)C3C3CCCCC3)cc2)no1 (centres unmarked) [Compound I-499] are within 1.5-fold of each other in IC50: 490 nM for the first, 398 nM for the second.

Compared with COCc1ccccc1C1C(C(=O)CC2CCCC2)=C(O)C(=O)N1c1ccc(-c2ccsc2)cc1 (centres unmarked) [Compound I-439], COCc1ccccc1C1C(C(=O)c2cccnc2)=C(O)C(=O)N1c1ccc(-c2ccsc2)cc1 (centres unmarked) [Compound I-461] is 3.2-fold lower in IC50: 116 nM for the first, 36 nM for the second.

First: CCOc1ncccc1C1C(C(=O)CC(C)C)=C(O)C(=O)N1c1ccc(-c2ccsc2)cc1 (centres unmarked) [Compound I-440]
Second: COc1ncccc1C1C(C(=O)CC(C)(C)C)=C(O)C(=O)N1c1ccc(-c2ccsc2)cc1 (centres unmarked) [Compound I-462]
The IC50 of the first is 12-fold lower: 35 nM for the first, 427 nM for the second.

CC(C)CC(=O)C1=C(O)C(=O)N(c2ccc(-c3ccsc3)cc2)C1c1ccccc1N1CCOCC1 (centres unmarked) [Compound I-442] and CC(C)C(=O)C1=C(O)C(=O)N(c2ccc(-c3ccsc3)cc2)C1c1ccccc1N1CCOCC1 (centres unmarked) [Compound I-443] are within 1.5-fold of each other in IC50: 5 nM for the first, 6 nM for the second.

Cc1nc(-c2ccc(N3C(=O)C(O)=C(C(=O)C(C)C)C3c3ccccc3OCCCO)cc2)no1 (centres unmarked) [Compound I-444] and Cc1nc(-c2ccc(N3C(=O)C(O)=C(C(=O)CC(C)C)C3c3ccccc3OCCCO)cc2)no1 (centres unmarked) [Compound I-445] are within 1.5-fold of each other in IC50: 172 nM for the first, 152 nM for the second.

COCCOc1ccccc1C1C(C(=O)CC(C)C)=C(O)C(=O)N1c1ccc(SC(F)(F)F)cc1 (centres unmarked) [Compound I-446] and COCc1ccccc1C1C(C(=O)CC(C)C)=C(O)C(=O)N1c1ccc(SC(F)(F)F)cc1 (centres unmarked) [Compound I-448] are within 1.5-fold of each other in IC50: 338 nM for the first, 246 nM for the second.

CC(C)CC(=O)C1=C(O)C(=O)N(c2ccc(SC(F)(F)F)cc2)C1c1ccccc1OC(C)C (centres unmarked) [Compound I-447] and COc1ccccc1C1C(C(=O)C(C)C)=C(O)C(=O)N1c1ccc(SC)cc1 (centres unmarked) [Compound I-473] are within 1.5-fold of each other in IC50: 128 nM for the first, 182 nM for the second.

First: CC(C)COc1ccccc1C1C(C(=O)C(C)C)=C(O)C(=O)N1c1ccc(-c2ccsc2)cc1 (centres unmarked) [Compound I-449]
Second: CC(C)C(=O)C1=C(O)C(=O)N(c2ccc(-c3ccsc3)cc2)C1c1ccccc1OCC(CO)CO (centres unmarked) [Compound I-456]
The IC50 of the first is 2.2-fold higher: 13 nM for the first, 6 nM for the second.

Compared with CC(C)COc1ccccc1C1C(C(=O)C(C)C)=C(O)C(=O)N1c1ccc(-c2ccon2)cc1 (centres unmarked) [Compound I-450], Cc1nc(-c2ccc(N3C(=O)C(O)=C(C(=O)C(C)C)C3c3ccccc3OCC(C)C)cc2)no1 (centres unmarked) [Compound I-451] is 1.9-fold lower in IC50: 36 nM for the first, 19 nM for the second.

First: COc1ccc(F)cc1C1C(C(=O)C(C)C)=C(O)C(=O)N1c1ccc(-c2ccsc2)cc1 (centres unmarked) [Compound I-452]
Second: COc1ccc(F)cc1C1C(C(=O)C(C)C)=C(O)C(=O)N1c1ccc(-c2csc(C)c2)cc1 (centres unmarked) [Compound I-453]
The IC50 of the first is 1.6-fold lower: 26 nM for the first, 41 nM for the second. The first is the more potent here.

Compared with COc1ccc(F)cc1C1C(C(=O)C(C)C)=C(O)C(=O)N1c1ccc(-c2ccc(C)o2)cc1 (centres unmarked) [Compound I-454], COc1ccccc1C1C(C(=O)C(C)C)=C(O)C(=O)N1c1ccc(-c2cc(C)on2)cc1 (centres unmarked) [Compound I-457] is 14-fold higher in IC50: 36 nM for the first, 488 nM for the second. The first is the more potent here.

Going from COCc1ccccc1[C@@H]1C(C(=O)C(C)C)=C(O)C(=O)N1c1ccc(-c2csc(C)c2)cc1 [Compound I-455] to COCc1ccccc1C1C(C(=O)C(C)C)=C(O)C(=O)N1c1ccc(-c2cc(C)on2)cc1 (centres unmarked) [Compound I-458], the IC50 rises from 14 nM to 699 nM (50-fold).

First: CC(C)Oc1ccccc1C1C(C(=O)C(C)C)=C(O)C(=O)N1c1ccc(N2CCCC2)cc1 (centres unmarked) [Compound I-459]
Second: CCc1nc2cc(N3C(=O)C(O)=C(C(=O)C(C)C)C3c3ccccc3OC(C)C)ccc2o1 (centres unmarked) [Compound I-464]
The IC50 of the first is 17-fold lower: 26 nM for the first, 453 nM for the second. The first is the more potent here.

First: COc1ccccc1C1C(C(=O)c2cccnc2)=C(O)C(=O)N1c1ccc(-c2ccsc2)cc1 (centres unmarked) [Compound I-460]
Second: COCCCOc1ccccc1C1C(C(=O)CC(C)C)=C(O)C(=O)N1c1ccc(-c2ccsc2)cc1 (centres unmarked) [Compound I-490]
The IC50 of the first is 6.1-fold higher: 103 nM for the first, 17 nM for the second.

Going from COCCOc1ncccc1C1C(C(=O)CC(C)(C)C)=C(O)C(=O)N1c1ccc(-c2ccsc2)cc1 (centres unmarked) [Compound I-463] to COCCOc1ncccc1[C@@H]1C(C(=O)C(C)C)=C(O)C(=O)N1c1ccc(-c2ccc(C)s2)cc1 [Compound I-472], the IC50 falls from 127 nM to 7 nM (18-fold).

Compared with COCCOc1ccccc1[C@@H]1C(C(=O)C(C)C)=C(O)C(=O)N1c1ccc(-c2ccc(C)s2)cc1 [Compound I-465], COCCOc1ccccc1C1C(C(=O)C(C)C)=C(O)C(=O)N1c1ccc(-c2cc(C)on2)cc1 (centres unmarked) [Compound I-481] is 54-fold higher in IC50: 7 nM for the first, 378 nM for the second. The first is the more potent here.

First: COc1ccccc1C1C(S(=O)(=O)C(C)C)=C(O)C(=O)N1c1ccc(-c2ccc(C)o2)cc1 (centres unmarked) [Compound I-467]
Second: COc1ccccc1C1C(S(C)(=O)=O)=C(O)C(=O)N1c1ccc(-c2ccc(C)o2)cc1 (centres unmarked) [Compound I-468]
The IC50 of the first is 1.6-fold lower: 286 nM for the first, 467 nM for the second.

Compared with Cc1nc(-c2ccc(NC3=CC(C4CCCCC4)N(c4ccc(-c5noc(C)n5)cc4)C3=O)cc2)no1 (centres unmarked) [Compound I-469], O=C1C(O)=C(S(=O)(=O)c2ccccc2)C(C2CCCCC2)N1c1ccc(-c2ccon2)cc1 (centres unmarked) [Compound I-482] is 1.9-fold lower in IC50: 646 nM for the first, 333 nM for the second. The second is the more potent here.

Going from CCOC(=O)C(C)(C)C(=O)C1=C(O)C(=O)N(c2ccc(-c3csc(C)c3)cc2)C1c1ccccc1OC (centres unmarked) [Compound I-470] to CCN(C)C(=O)c1ccccc1C1C(C(=O)C(C)C)=C(O)C(=O)N1c1ccc(-c2csc(C)c2)cc1 (centres unmarked) [Compound I-494], the IC50 falls from 972 nM to 53 nM (18-fold).

First: COCCCOc1ncccc1C1C(C(=O)C(C)C)=C(O)C(=O)N1c1ccc(-c2ccc(C)o2)cc1 (centres unmarked) [Compound I-471]
Second: Cc1ccc(-c2ccc(N3C(=O)C(O)=C(C(=O)C(C)C)C3c3cccnc3OCCCO)cc2)o1 (centres unmarked) [Compound I-478]
The IC50 of the first is 1.8-fold lower: 19 nM for the first, 34 nM for the second.

Compared with CSc1ccc(N2C(=O)C(O)=C(C(=O)C(C)C)C2c2ccccc2OCCCO)cc1 (centres unmarked) [Compound I-476], COCCCOc1ccccc1C1C(C(=O)C(C)C)=C(O)C(=O)N1c1ccc(SC)cc1 (centres unmarked) [Compound I-484] is 1.8-fold higher in IC50: 51 nM for the first, 91 nM for the second. The first is the more potent here.

Going from Cc1ccc(-c2ccc(N3C(=O)C(O)=C(C(=O)C(C)C)C3c3cccnc3OC(C)C)cc2)o1 (centres unmarked) [Compound I-479] to Cc1ccc(-c2ccc(N3C(=O)C(O)=C(C(=O)C(C)C)C3c3cccnc3OCCO)cc2)o1 (centres unmarked) [Compound I-483], the IC50 rises from 10 nM to 89 nM (8.9-fold). The first is the more potent here.

Compared with COc1ccc(C(=O)C2=C(O)C(=O)N(c3ccc(-c4cc(C)on4)cc3)C2c2ccccc2OC)cc1 (centres unmarked) [Compound I-480], COCCCOc1ccccc1C1C(C(=O)C(C)C)=C(O)C(=O)N1c1ccc(-c2noc(C)n2)cc1 (centres unmarked) [Compound I-491] is 3.7-fold higher in IC50: 42 nM for the first, 155 nM for the second.

Going from COCCOc1ncccc1C1C(C(=O)C(C)C)=C(O)C(=O)N1c1ccc(SC)cc1 (centres unmarked) [Compound I-485] to CCN(C)C(=O)c1ccccc1C1C(C(=O)C(C)C)=C(O)C(=O)N1c1ccc(-c2ccc(C)o2)cc1 (centres unmarked) [Compound I-495], the IC50 falls from 218 nM to 59 nM (3.7-fold). The second is the more potent here.

First: Cc1ccc(-c2ccc(N3C(=O)C(O)=C(C(=O)C(C)C)C3c3ccccc3N3CCOCC3)cc2)o1 (centres unmarked) [Compound I-486]
Second: Cc1nc(-c2ccc(N3C(=O)C(O)=C(C(=O)C(C)C)C3c3ccccc3N3CCOCC3)cc2)no1 (centres unmarked) [Compound I-487]
The IC50 of the first is 42-fold lower: 4 nM for the first, 167 nM for the second.

Cc1nc(-c2ccc(N3C(=O)C(O)=C(C(=O)CC(C)C)C3c3ccccc3N3CCOCC3)cc2)no1 (centres unmarked) [Compound I-488] and COCCN(C)C(=O)c1ccccc1C1C(C(=O)CC(C)C)=C(O)C(=O)N1c1ccc(-c2ccc(C)o2)cc1 (centres unmarked) [Compound I-496] are within 1.5-fold of each other in IC50: 67 nM for the first, 55 nM for the second.

First: Cc1ccc(-c2ccc(N3C(=O)C(O)=C(C(=O)C(C)C)C3c3ccccc3CC(=O)N(C)C)cc2)o1 (centres unmarked) [Compound I-493]
Second: COCCN(C)C(=O)c1ccccc1C1C(C(=O)CC(C)C)=C(O)C(=O)N1c1ccc(-c2csc(C)c2)cc1 (centres unmarked) [Compound I-497]
The IC50 of the first is 2.9-fold higher: 105 nM for the first, 36 nM for the second.

Work on CC(C)CC(=O)C1=C(O)C(=O)N(c2ccc(-c3ccsc3)cc2)C1c1ccccc1OCC(CO)CO (centres unmarked) [Compound I-498] yielded an IC50 of 8 nM.
